{
  "source": "paper PMC11981937",
  "about": "(Nature, 2025)",
  "key": {"SARS-CoV-2": {"system": "SARS-CoV-2", "format": "in vivo, Syrian golden hamster", "conditions": "for Infectious virus in the lung (TCID50), Copy number, individual animal / Infectious virus in the lung (TCID50), Log 10, individual animal / Viral load (viral RNA) in the lung, Copy number, individual animal / Viral load (viral RNA) in the lung, Log 10, individual animal / Infectious virus in the lung (TCID50), average Log 10 / Infectious virus in the lung (TCID50), median Log 10 / Viral load (viral RNA) in the lung, average Log 10 / Viral load (viral RNA) in the lung, median Log 10: 250mg/kg/ BID; for Infectious virus in the lung (TCID50), average Log 10 / Infectious virus in the lung (TCID50), median Log 10 / Viral load (viral RNA) in the lung, average Log 10 / Viral load (viral RNA) in the lung, median Log 10: n=5"}, "[1]": {"assay": "Post-exposure Syrian golden hamster model, body weight", "conditions": "in vivo"}, "[2]": {"system": "SARS-CoV-2 (USA-WA1/2020)", "design": "species or system Syrian golden hamster", "conditions": "hamster, in vivo"}},
  "note": "Where “and” joins values, the source holds several entries; their conditions need not be identical. Equal entries are not always repeated. Where two headings read alike, the source gives them in different places.",
  "data": [
    {"smiles": "CC(C)(C)[C@H](NC(=O)C(F)(F)F)C(=O)N1C[C@H]2[C@@H]([C@H]1C(=O)N[C@H](C#N)C[C@@H]1CCNC1=O)C2(C)C", "note": "[nirmatrelvir, reference compound]", "values": [
      {"measurement": "Infectious virus in the lung (TCID50), Copy number, individual animal", "setting": "SARS-CoV-2; 10 h post exposure", "value": "2.74E+02 and 1.40E+02 and 3.86E+02"},
      {"measurement": "Infectious virus in the lung (TCID50), Log 10, individual animal", "setting": "SARS-CoV-2; 10 h post exposure", "value": "2.44 Log 10 and 3.68 Log 10 and 2.14 Log 10 and 3.67 Log 10 and 2.59 Log 10"},
      {"measurement": "Viral load (viral RNA) in the lung, Copy number, individual animal", "setting": "SARS-CoV-2; 10 h post exposure", "value": "3.26E+07 and 1.08E+07 and 4.11E+07 and 4.76E+07 and 5.79E+06"},
      {"measurement": "Viral load (viral RNA) in the lung, Log 10, individual animal", "setting": "SARS-CoV-2; 10 h post exposure", "value": "7.51 Log 10 and 7.03 Log 10 and 7.61 Log 10 and 7.68 Log 10 and 6.76 Log 10"},
      {"measurement": "Infectious virus in the lung (TCID50), average Log 10", "setting": "SARS-CoV-2; 10 h post exposure", "value": 2.90, "unit": "Log 10"},
      {"measurement": "Infectious virus in the lung (TCID50), median Log 10", "setting": "SARS-CoV-2; 10 h post exposure", "value": 2.59, "unit": "Log 10"},
      {"measurement": "Viral load (viral RNA) in the lung, average Log 10", "setting": "SARS-CoV-2; 10 h post exposure", "value": 7.32, "unit": "Log 10"},
      {"measurement": "Viral load (viral RNA) in the lung, median Log 10", "setting": "SARS-CoV-2; 10 h post exposure", "value": 7.51, "unit": "Log 10"},
      {"measurement": "Infectious virus in the lung (TCID50), Copy number, individual animal", "setting": "SARS-CoV-2; 24 h post exposure", "value": "3.74E+03 and 5.43E+02 and 1.15E+04 and 7.40E+03"},
      {"measurement": "Infectious virus in the lung (TCID50), Log 10, individual animal", "setting": "SARS-CoV-2; 24 h post exposure", "value": "3.57 Log 10 and 2.74 Log 10 and 4.06 Log 10 and 3.67 Log 10 and 3.87 Log 10"},
      {"measurement": "Viral load (viral RNA) in the lung, Copy number, individual animal", "setting": "SARS-CoV-2; 24 h post exposure", "value": "4.02E+07 and 9.08E+07 and 1.10E+07 and 3.49E+07 and 2.71E+07"},
      {"measurement": "Viral load (viral RNA) in the lung, Log 10, individual animal", "setting": "SARS-CoV-2; 24 h post exposure", "value": "7.60 Log 10 and 7.96 Log 10 and 7.04 Log 10 and 7.54 Log 10 and 7.43 Log 10"},
      {"measurement": "Infectious virus in the lung (TCID50), average Log 10", "setting": "SARS-CoV-2; 24 h post exposure", "value": 3.58, "unit": "Log 10"},
      {"measurement": "Infectious virus in the lung (TCID50), median Log 10", "setting": "SARS-CoV-2; 24 h post exposure", "value": 3.67, "unit": "Log 10"},
      {"measurement": "Viral load (viral RNA) in the lung, average Log 10", "setting": "SARS-CoV-2; 24 h post exposure", "value": 7.52, "unit": "Log 10"},
      {"measurement": "Viral load (viral RNA) in the lung, median Log 10", "setting": "SARS-CoV-2; 24 h post exposure", "value": 7.54, "unit": "Log 10"},
      {"measurement": "Infectious virus in the lung (TCID50), Copy number, individual animal", "setting": "SARS-CoV-2; 48 h post exposure", "value": "5.70E+02 and 4.90E+02 and 1.00E+02 and 6.63E+02 and 1.50E+03"},
      {"measurement": "Infectious virus in the lung (TCID50), Log 10, individual animal", "setting": "SARS-CoV-2; 48 h post exposure", "value": "2.76 Log 10 and 2.69 Log 10 and 2.00 Log 10 and 2.82 Log 10 and 3.17 Log 10"},
      {"measurement": "Viral load (viral RNA) in the lung, Copy number, individual animal", "setting": "SARS-CoV-2; 48 h post exposure", "value": "1.41E+08 and 2.05E+07 and 3.56E+08 and 4.63E+07 and 6.23E+07"},
      {"measurement": "Viral load (viral RNA) in the lung, Log 10, individual animal", "setting": "SARS-CoV-2; 48 h post exposure", "value": "8.15 Log 10 and 7.31 Log 10 and 8.55 Log 10 and 7.67 Log 10 and 7.79 Log 10"},
      {"measurement": "Infectious virus in the lung (TCID50), average Log 10", "setting": "SARS-CoV-2; 48 h post exposure", "value": 2.69, "unit": "Log 10"},
      {"measurement": "Infectious virus in the lung (TCID50), median Log 10", "setting": "SARS-CoV-2; 48 h post exposure", "value": 2.76, "unit": "Log 10"},
      {"measurement": "Viral load (viral RNA) in the lung, average Log 10", "setting": "SARS-CoV-2; 48 h post exposure", "value": 7.89, "unit": "Log 10"},
      {"measurement": "Viral load (viral RNA) in the lung, median Log 10", "setting": "SARS-CoV-2; 48 h post exposure", "value": 7.79, "unit": "Log 10"},
      {"measurement": "reduction of lung viral RNA load and infectious virus (in words)", "setting": "SARS-CoV-2; post-exposure, 250 mg per kg BID", "value": "not significant"},
      {"measurement": "Average body weight change (%) on day 4 compared to day 0", "setting": "[1]", "value": "-2.756% and -3.747% and -5.087%"},
      {"measurement": "Infectious SARS-CoV2 virus in the lung, Avg", "setting": "[2]", "value": 4651963, "unit": "PFU/g Lung"},
      {"measurement": "Infectious SARS-CoV2 virus in the lung, Log10, Avg", "setting": "[2]", "value": 5.697, "unit": "Log10 PFU/g Lung"},
      {"measurement": "SARS-CoV2 viral load (viral RNA) in the lung, Avg", "setting": "[2]", "value": 46452968, "unit": "RNA copies/mL"},
      {"measurement": "SARS-CoV2 viral load (viral RNA) in the lung, Log10, Avg", "setting": "[2]", "value": 6.876, "unit": "Log10 RNA copies/mL"}
    ]}
  ]
}
